In patent publication US11672786B2, “Methods of treating diseases associated with repeat instability” (The Hospital for Sick Children, priority 2016, dated 2023):

Legend:
HT1080-(CAG)850 cells = assay: cellular distribution by confocal microscopy; type: cell-based, human; details: 50-μM NBD-labeled NA, 48 hr
Protocol: Scale bar represents 20 μm. […] The cell viability was estimated with WST-1 assays. Values represent the means of three independent measures±SD. […] Error bars indicate the SD of triplicate experiments. […] The dashed line indicates the peak CAG size. Allele lengths are grouped in bins spanning 10 repeats. More than 230 alleles were sized per group.
HT1080-(CAG)850 cells were incubated with 50-μM NBD-labeled NA for 48 hr and Cell Light Plasma Membrane-RFP, BacMam 2.0 (Life Technologies, Carlsbad, Calif.), then fixed for 15 min at RT with 4% paraformaldehyde and washed 2 times for 10 min in phosphate buffered saline (PBS). Cells were mounted with Vectashield hard-set mounting media that contains DAPI (Vector Laboratories, Burlingame, Calif.). Fluorescence images were obtained using Olympus FV1000D confocal laser scanning microscope (Olympus, Tokyo, Japan).

CAG expansions = details: by unknown processes; cited from earlier work

With Cc1ccc2ccc(NC(=O)CCN(CCCNC(=O)CCCNC(=O)CCCCCNc3ccc([N+](=O)[O-])c4nonc34)CCC(=O)NCc3ccc4ccc(=O)[nH]c4n3)nc2n1 [NBD-labeled NA, N-(4-((3-((3-((7-methyl-1,8-naphthyridin-2-yl)amino)-3-oxopropyl)(3-oxo-3-(((7-oxo-7,8-dihydro-1,8-naphthyridin-2-yl)methyl)amino)propyl)amino)propyl)amino)-4-oxobutyl)-6-((7-nitrobenzo[c][1,2,5]oxadiazol-4-yl)amino)hexanamide] the cellular distribution (HT1080-(CAG)850 cells) was “distributed throughout the nuclei and cytoplasm”.

In the case of CC(C)C[C@@H](/C=C/[C@H](Cc1ccccc1)C(=O)N1CCC[C@H]1C(=O)N[C@H](C(=O)N[C@@H](CCCNC(=O)OCc1ccccc1)C(=O)NC1CC(C)(C)N([O])C(C)(C)C1)C(C)C)NC(=O)OC(C)(C)C [XJB-5-131], the “effect on CAG expansions” value (CAG expansions) is given as “mildly suppress CAG expansions rather than induce contractions”.
